Data published in ChEMBL document CHEMBL1155034, “Constituents of the root wood of Zanthoxylum wutaiense with antitubercular activity” (2008).
In brackets after ≈: the same amount, converted by molar mass.

system: Mycobacterium tuberculosis; experiment: Antitubercular activity against Mycobacterium tuberculosis H37Rv after 2 weeks; format: functional; conditions: 336 h

COc1cc(/C=C/C=O)cc2ccoc12 and COc1cc(CCCO)cc2ccoc12 are within 1.5-fold of each other in MIC: 35 µg/mL (≈ 173 µM) for the first, 50 µg/mL (≈ 242 µM) for the second.

COC(=O)c1cc2c(c(OC)c1)O[C@H](C(C)(C)O)C2 and COc1cc(/C=C/C=O)cc2c1O[C@H](C(C)(C)O)C2 [WUTAIENSAL] are within 1.5-fold of each other in MIC: 35 µg/mL (≈ 131 µM) for the first, 30 µg/mL (≈ 114 µM) for the second.

COc1c2ccccc2nc2occc12 [DICTAMNINE] and COc1c2ccoc2nc2c(OC)cccc12 [GAMMA-FAGARINE] are the same in MIC: 30 µg/mL (≈ 151 µM) for the first, 30 µg/mL (≈ 131 µM) for the second.

Going from CC[C@@H](CO)NCCN[C@@H](CC)CO [ETHAMBUTOL] to COC(=O)/C=C/c1ccc2c(c1)C[C@@H](C(C)(C)O)O2 [METHYL DEMETHOXYWUTAIENSATE], the MIC rises from 6.25 µg/mL (≈ 30.6 µM) to 50 µg/mL (≈ 191 µM) (8-fold).

In the case of CC(C)=CCOc1ccc(C(=O)O)cc1 [VALENCIC ACID], the MIC was 45 µg/mL (≈ 218 µM).
